pIC50: −log10 of the molar value.
How the values were obtained:
Assay type in all cases: cell-based
human TLR7 = molecular target: T1, human TLR7 (Homo sapiens, UniProt Q9NYK1); assay: TLR7 inhibition reporter assay (HEK-Blue cells, SEAP reporter, gardiquimod stimulation); settings: HEK-Blue cells overexpressing human TLR7, SEAP reporter, gardiquimod 7.5 μM
T1 construct: host or cells: HEK-Blue cells
T1 sequence (Q9NYK1 27-1049): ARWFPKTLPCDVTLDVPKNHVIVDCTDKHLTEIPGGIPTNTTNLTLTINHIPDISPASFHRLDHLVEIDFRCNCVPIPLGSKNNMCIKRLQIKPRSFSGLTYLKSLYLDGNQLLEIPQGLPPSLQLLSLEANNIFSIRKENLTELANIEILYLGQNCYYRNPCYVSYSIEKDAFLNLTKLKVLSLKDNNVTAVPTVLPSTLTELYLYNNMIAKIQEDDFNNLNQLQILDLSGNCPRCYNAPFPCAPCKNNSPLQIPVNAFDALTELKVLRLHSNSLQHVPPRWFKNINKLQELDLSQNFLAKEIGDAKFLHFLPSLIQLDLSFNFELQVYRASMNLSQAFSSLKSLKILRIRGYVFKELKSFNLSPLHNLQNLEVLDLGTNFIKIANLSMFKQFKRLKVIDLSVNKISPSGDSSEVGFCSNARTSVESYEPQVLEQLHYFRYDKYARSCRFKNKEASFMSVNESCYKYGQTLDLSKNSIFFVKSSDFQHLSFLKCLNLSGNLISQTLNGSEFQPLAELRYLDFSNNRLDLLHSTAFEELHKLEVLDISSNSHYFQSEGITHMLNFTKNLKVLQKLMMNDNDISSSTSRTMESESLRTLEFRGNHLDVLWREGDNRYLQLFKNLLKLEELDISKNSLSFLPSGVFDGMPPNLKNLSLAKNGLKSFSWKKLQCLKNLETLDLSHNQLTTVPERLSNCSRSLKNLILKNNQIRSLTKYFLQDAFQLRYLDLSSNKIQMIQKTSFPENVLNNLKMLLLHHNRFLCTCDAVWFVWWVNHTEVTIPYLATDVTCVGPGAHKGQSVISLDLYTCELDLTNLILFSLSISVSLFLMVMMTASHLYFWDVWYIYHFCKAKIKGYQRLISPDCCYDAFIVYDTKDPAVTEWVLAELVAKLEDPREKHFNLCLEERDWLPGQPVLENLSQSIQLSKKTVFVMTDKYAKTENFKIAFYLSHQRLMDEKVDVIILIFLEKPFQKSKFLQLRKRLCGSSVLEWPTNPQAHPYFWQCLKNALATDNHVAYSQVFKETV
Summary of the method: (§1)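 HEK-Blue cells with NF-κB/AP-1-driven SEAP reporter, pre-treated 30 min at room temperature with compound (0.05 nM-50 μM). Stimulants: gardiquimod 7.5 μM (TLR7), R848 15.9 μM (TLR8) or ODN2006 5 nM (TLR9). SEAP measured after 22 h at 37° C.; percent inhibition versus agonist-plus-DMSO and known-inhibitor wells.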

human TLR8 = molecular target: T2, human TLR8 (Homo sapiens, UniProt Q9NR97); assay: TLR8 inhibition reporter assay (HEK-Blue cells, SEAP reporter, R848 stimulation); settings: HEK-Blue cells overexpressing human TLR8, SEAP reporter, R848 15.9 μM
T2 construct: host or cells: HEK-Blue cells
T2 sequence (Q9NR97 27-1041): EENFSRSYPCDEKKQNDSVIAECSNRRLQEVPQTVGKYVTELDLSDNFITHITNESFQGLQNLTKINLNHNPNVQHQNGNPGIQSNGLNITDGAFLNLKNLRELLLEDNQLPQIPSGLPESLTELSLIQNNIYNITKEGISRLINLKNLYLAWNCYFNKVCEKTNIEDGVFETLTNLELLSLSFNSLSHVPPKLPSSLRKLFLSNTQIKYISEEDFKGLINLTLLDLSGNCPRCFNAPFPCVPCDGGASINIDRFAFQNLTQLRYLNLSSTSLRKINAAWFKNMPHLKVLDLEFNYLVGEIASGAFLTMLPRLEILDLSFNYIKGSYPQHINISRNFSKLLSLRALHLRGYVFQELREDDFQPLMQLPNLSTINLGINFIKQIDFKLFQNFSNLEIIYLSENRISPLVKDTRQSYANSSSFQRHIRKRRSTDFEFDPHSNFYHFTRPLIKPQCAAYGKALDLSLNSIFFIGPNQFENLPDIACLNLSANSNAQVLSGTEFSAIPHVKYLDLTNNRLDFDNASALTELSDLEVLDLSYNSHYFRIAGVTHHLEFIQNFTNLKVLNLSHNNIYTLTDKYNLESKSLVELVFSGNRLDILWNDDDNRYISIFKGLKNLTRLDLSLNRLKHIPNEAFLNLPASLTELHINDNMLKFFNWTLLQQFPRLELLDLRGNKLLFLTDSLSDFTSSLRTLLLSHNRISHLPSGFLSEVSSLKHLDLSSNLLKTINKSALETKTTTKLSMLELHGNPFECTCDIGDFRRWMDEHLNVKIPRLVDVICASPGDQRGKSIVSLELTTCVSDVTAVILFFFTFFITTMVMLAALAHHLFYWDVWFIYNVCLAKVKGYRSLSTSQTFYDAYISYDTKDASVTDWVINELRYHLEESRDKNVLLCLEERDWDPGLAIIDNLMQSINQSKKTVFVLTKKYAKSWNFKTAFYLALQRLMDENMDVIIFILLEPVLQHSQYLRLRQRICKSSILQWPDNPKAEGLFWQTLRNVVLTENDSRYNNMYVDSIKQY
Summary of the method: as §1

human TLR9 = molecular target: T3, human TLR9 (Homo sapiens, UniProt Q9NR96); assay: TLR9 inhibition reporter assay (HEK-Blue cells, SEAP reporter, ODN2006 stimulation); settings: HEK-Blue cells overexpressing human TLR9, SEAP reporter, ODN2006 5 nM
T3 construct: host or cells: HEK-Blue cells
T3 sequence (Q9NR96 26-1032): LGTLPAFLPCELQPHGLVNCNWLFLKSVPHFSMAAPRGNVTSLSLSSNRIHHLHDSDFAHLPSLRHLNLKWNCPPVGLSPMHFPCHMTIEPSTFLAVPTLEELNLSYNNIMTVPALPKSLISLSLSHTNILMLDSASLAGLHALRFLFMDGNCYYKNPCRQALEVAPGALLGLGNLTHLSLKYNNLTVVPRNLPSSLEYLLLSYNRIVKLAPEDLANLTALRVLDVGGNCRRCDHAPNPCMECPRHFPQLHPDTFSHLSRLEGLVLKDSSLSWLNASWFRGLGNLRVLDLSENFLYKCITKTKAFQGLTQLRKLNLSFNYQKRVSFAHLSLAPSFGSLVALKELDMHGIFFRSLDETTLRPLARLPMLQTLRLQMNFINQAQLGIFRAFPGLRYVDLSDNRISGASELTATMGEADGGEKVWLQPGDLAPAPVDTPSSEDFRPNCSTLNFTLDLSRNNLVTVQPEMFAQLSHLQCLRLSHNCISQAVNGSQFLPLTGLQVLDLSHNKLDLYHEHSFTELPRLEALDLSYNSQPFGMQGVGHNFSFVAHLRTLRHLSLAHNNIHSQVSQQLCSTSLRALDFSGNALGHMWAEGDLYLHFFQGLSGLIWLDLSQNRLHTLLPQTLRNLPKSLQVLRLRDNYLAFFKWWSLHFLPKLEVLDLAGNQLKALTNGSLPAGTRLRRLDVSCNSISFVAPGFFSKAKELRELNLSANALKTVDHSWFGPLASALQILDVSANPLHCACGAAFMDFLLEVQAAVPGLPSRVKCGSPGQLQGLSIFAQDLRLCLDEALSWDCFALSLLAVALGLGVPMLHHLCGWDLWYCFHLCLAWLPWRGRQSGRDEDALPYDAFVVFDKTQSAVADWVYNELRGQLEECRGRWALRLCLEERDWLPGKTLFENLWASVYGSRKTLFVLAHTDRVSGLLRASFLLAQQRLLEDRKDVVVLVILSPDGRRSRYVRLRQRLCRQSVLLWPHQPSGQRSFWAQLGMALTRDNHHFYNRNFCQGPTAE
Summary of the method: as §1

SMILES	pIC50 (human TLR7)	pIC50 (human TLR8)	pIC50 (human TLR9)
Cc1cc(-c2[nH]c3ccc(C4CCCN(CC(=O)N(C)C)C4)cc3c2C(C)C)cc(C)n1 (stereo not drawn) [Example 235]	7.40	7.92	6.16
COc1cc(-c2[nH]c3ccc(C4CCCN(C(C)C)C4)cc3c2C(C)C)cn2ncnc12 (stereo not drawn) [Example 236, 6-(3-isopropyl-5-(1-isopropylpiperidin-3-yl)-1H-indol-2-yl)-8-methoxy-[1,2,4]triazolo[1,5-a]pyridine]	9.00	9.34	5.90
COc1cc(-c2[nH]c3ccc(C4CCCN(C5COC5)C4)cc3c2C(C)C)cn2ncnc12 (stereo not drawn) [Example 237]	7.82	7.42	4.67
COc1cc(-c2[nH]c3ccc(C4CCCN(C)C4)cc3c2C(C)C)cn2ncnc12 (stereo not drawn) [Example 238]	9.09	9.12	5.90
COc1cc(-c2[nH]c3ccc(C4CCCN(C5COC5)C4)cc3c2C(C)C)cn2ncnc12 (stereo not drawn) [Example 240]	8.30	8.38	4.94
COc1cc(-c2[nH]c3ccc(C4CCCN(C)C4)cc3c2C(C)C)cn2ncnc12 (stereo not drawn) [Example 241]	9.28	8.72	5.88
COc1cc(-c2[nH]c3ccc(C4CCCN(C5COC5)C4)cc3c2C(C)C)cn2ncnc12 (stereo not drawn) [Example 242]	8.10	8.62	4.59
COc1cc(-c2[nH]c3ccc(C4CCCN(C5COC5)C4)cc3c2C(C)C)cn2ncnc12 (stereo not drawn) [Example 243]	8.00	7.80	4.89
COc1cc(-c2[nH]c3ccc(C4CCCN(C5CCOCC5)C4)cc3c2C(C)C)cn2ncnc12 (stereo not drawn) [Example 244]	8.40	9.16	5.92
Cc1cc(-c2[nH]c3ccc(C4CCCN(C5CCN(C(C)C)CC5)C4)cc3c2C(C)C)cc(C)n1 (stereo not drawn) [Example 245]	6.98	7.72	6.38
Cc1cc(-c2[nH]c3ccc(C4CCCN(Cc5c[nH]c(C)n5)C4)cc3c2C(C)C)cc(C)n1 (stereo not drawn) [Example 246]	8.00	7.80	7.25
Cc1cc(-c2[nH]c3ccc(C4CCCN(Cc5c[nH]c(C)n5)C4)cc3c2C(C)C)cc(C)n1 (stereo not drawn) [Example 247]	8.10	8.16	6.94
COc1cc(-c2[nH]c3ccc(C4CCCN(CC(C)(C)O)C4)cc3c2C(C)C)cn2ncnc12 (stereo not drawn) [Example 248, 1-(3-(3-isopropyl-2-(8-methoxy-[1,2,4]triazolo[1,5-a]pyridin-6-yl)-1H-indol-5-yl)piperidin-1-yl)-2-methylpropan-2-ol]	9.12	8.68	5.70
COc1cc(-c2[nH]c3ccc(C4CCCN(CC(C)(C)O)C4)cc3c2C(C)C)cn2ncnc12 (stereo not drawn) [Example 249]	8.70	8.92	5.63

Now from value to compound:

pIC50 (human TLR7)	pIC50 (human TLR8)	pIC50 (human TLR9)	SMILES
8.52	8.49	5.28	COCCN1CCCC(c2ccc3[nH]c(-c4cc(OC)c5ncnn5c4)c(C(C)C)c3c2)C1 (stereo not drawn) [Example 251, 6-(3-isopropyl-5-(1-(2-methoxyethyl)piperidin-3-yl)-1H-indol-2-yl)-8-methoxy-[1,2,4]triazolo[1,5-a]pyridine]
8.30	8.36	5.21	COc1cc(-c2[nH]c3ccc(C4CCCN(CCS(C)(=O)=O)C4)cc3c2C(C)C)cn2ncnc12 (stereo not drawn) [Example 253]
6.97	7.80	6.13	CNCCN1CCCC(c2ccc3[nH]c(-c4ccc(OC)c(OC)c4)c(C(C)C)c3c2)C1 (stereo not drawn) [Example 254, 2-(3-(2-(3,4-dimethoxyphenyl)-3-isopropyl-1H-indol-5-yl)piperidin-1-yl)-N-methylethanamine]
7.72	8.28	6.80	CNCCN1CCCC(c2ccc3[nH]c(-c4ccnc(C)c4)c(C(C)C)c3c2)C1 (stereo not drawn) [Example 255]
6.65	8.49	6.21	CNCCN1CCCC(c2ccc3[nH]c(-c4ccnc(C)c4)c(C(C)C)c3c2)C1 (stereo not drawn) [Example 256]
9.36	8.72	6.12	Cc1cc(-c2[nH]c3ccc(C4CNC4)cc3c2C(C)C)cn2ncnc12 [Example 257, 6-(5-(azetidin-3-yl)-3-isopropyl-1H-indol-2-yl)-8-methyl-[1,2,4]triazolo[1,5-a]pyridine]
8.40	7.96	6.15	Cc1cc(-c2[nH]c3ccc(C4CNC4)cc3c2C(C)C)cc(C)n1 [Example 259]
8.70	8.41	5.28	CNC(=O)CN1CC(c2ccc3[nH]c(-c4cc(C)c5ncnn5c4)c(C(C)C)c3c2)C1 [Example 260, 2-(3-(3-isopropyl-2-(8-methyl-[1,2,4]triazolo[1,5-a]pyridin-6-yl)-1H-indol-5-yl)azetidin-1-yl)-N-methylacetamide]
8.40	7.96	5.48	Cc1cc(-c2[nH]c3ccc(C4CN(CC(=O)N(C)C)C4)cc3c2C(C)C)cn2ncnc12 [Example 261]

Source: patent US11878975B2, “Substituted indole compounds useful as TLR inhibitors” (BRISTOL-MYERS SQUIBB COMPANY, priority 2017, dated 2024)
